Experimental data: ChEMBL document CHEMBL4393671, “Design of a Cyclin G Associated Kinase (GAK)/Epidermal Growth Factor Receptor (EGFR) Inhibitor Set to Interrogate the Relationship of EGFR and GAK in Chordoma” (J Med Chem, 2019)
Active and inactive are the calls of the source. The calls are words filed in the database; no cut-off is given here.

Legend:
cells [1] = type: functional, cell-based; conditions: Homo sapiens, UCH1, 72 h
Description: Antiproliferative activity against human UCH1 cells measured after 72 hrs by alamar blue assay

cells [2] = type: functional, cell-based; conditions: Homo sapiens, UCH2, 72 h
Description: Antiproliferative activity against human UCH2 cells measured after 72 hrs by alamar blue assay

[3] = biological target: T1, Epidermal growth factor receptor (Homo sapiens, UniProt P00533);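 on IC50: human A431 cells pretreated 90 min, then EGF stimulated, sandwich ELISA measured decrease in EGF-induced receptor autophosphorylation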;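 on Kd: KINOMEscan competition binding with recombinant partial wild-type human EGFR (residues R669–V1011) produced in bacteria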
T1 sequence (P00533 whole entry, the tested form may be a part): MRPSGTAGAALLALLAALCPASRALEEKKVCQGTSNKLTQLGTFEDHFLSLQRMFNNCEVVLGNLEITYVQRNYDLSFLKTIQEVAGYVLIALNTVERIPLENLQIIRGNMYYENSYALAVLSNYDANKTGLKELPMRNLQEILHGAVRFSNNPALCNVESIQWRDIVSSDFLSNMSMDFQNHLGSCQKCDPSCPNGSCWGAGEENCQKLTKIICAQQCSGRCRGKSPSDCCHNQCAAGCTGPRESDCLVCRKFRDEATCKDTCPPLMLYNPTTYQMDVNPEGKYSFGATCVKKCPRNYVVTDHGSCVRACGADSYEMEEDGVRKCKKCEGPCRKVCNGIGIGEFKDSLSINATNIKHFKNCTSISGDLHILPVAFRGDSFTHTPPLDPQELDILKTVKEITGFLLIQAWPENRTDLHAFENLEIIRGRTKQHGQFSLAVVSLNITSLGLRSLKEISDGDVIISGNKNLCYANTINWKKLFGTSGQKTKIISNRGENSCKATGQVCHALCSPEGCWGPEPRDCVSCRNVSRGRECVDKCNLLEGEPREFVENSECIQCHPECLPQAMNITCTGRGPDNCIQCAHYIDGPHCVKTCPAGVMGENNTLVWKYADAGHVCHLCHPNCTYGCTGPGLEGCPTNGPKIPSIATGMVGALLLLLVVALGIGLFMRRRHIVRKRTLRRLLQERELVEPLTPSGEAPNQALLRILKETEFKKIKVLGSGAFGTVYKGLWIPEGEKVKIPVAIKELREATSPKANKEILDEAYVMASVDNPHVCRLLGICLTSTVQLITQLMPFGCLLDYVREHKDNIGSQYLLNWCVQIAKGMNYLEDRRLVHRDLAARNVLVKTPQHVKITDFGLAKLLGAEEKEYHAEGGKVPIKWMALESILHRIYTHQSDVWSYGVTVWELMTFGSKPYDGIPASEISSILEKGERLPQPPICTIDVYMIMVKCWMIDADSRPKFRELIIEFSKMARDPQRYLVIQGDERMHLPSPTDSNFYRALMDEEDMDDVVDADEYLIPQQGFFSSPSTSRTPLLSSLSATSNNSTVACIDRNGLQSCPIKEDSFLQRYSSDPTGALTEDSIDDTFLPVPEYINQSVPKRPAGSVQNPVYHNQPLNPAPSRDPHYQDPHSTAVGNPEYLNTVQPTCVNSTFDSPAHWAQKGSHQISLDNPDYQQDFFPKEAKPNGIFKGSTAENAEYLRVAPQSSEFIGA
Description: Binding affinity to wild-type human partial length EGFR (R669 to V1011 residues) expressed in bacterial expression system by Kinomescan method

[4] = biological target: T1, Epidermal growth factor receptor; type: cell-based
Description: Inhibition of EGFR in human A431 cells assessed as reduction in EGF-stimulated EGFR autophosphorylation preincuabted for 90 mins followed by EGF-stimulation by sandwich-ELISA

[5] = biological target: T2, Cyclin-G-associated kinase (Homo sapiens, UniProt O14976); assay: Inhibition of tracer 5 binding to human N-terminal nano luciferase-fused GAK expressed in HEK293 cells measured after 2 hrs by nanoBRET assay; type: cell-based
T2 sequence (O14976 whole entry): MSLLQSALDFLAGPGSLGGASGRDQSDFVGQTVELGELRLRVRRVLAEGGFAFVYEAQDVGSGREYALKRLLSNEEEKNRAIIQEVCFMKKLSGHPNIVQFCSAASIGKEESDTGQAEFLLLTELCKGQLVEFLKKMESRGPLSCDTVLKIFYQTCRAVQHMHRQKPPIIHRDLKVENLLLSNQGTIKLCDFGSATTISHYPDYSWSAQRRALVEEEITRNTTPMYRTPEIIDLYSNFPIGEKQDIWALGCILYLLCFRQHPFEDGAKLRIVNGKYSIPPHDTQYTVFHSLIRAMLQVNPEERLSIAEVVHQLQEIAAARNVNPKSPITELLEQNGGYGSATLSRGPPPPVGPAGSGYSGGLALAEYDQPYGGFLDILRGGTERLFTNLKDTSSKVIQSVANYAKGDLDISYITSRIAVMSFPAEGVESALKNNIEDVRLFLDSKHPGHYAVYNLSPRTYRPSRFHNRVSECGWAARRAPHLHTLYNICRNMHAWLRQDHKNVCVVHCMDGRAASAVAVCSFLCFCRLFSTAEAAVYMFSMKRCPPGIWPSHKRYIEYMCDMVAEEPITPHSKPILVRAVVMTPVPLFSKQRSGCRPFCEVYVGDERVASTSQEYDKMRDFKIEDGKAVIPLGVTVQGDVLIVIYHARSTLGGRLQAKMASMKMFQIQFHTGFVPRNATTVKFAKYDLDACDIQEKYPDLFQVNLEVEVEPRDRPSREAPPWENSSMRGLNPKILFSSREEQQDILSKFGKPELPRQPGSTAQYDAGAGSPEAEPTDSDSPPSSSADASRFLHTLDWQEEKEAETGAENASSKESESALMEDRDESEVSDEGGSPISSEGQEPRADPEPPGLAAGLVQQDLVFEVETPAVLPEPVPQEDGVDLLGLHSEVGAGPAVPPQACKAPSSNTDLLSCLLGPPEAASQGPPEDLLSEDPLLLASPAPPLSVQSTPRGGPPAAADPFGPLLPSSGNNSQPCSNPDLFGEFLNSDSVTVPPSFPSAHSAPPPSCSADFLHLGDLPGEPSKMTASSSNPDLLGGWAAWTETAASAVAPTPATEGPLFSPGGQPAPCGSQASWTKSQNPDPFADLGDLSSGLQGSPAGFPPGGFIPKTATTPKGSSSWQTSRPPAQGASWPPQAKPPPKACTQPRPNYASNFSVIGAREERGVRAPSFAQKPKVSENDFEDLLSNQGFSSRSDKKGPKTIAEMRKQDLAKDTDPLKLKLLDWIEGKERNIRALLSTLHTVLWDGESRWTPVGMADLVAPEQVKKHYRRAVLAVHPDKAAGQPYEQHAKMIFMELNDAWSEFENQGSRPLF

cells [6] = type: ADME, cell-based; conditions: Homo sapiens, WS1, 72 h
Description: Cytotoxicity against human WS1 cells measured after 72 hrs by alamar blue assay

cells [7] = type: functional, cell-based; conditions: Homo sapiens, 72 h
Description: Antiproliferative activity against human UCH7 cells measured after 72 hrs by alamar blue assay

cells [8] = type: functional, cell-based; conditions: Homo sapiens, 72 h; remark: listed apart in the source
Description: Antiproliferative activity against human UMCHOR1 cells measured after 72 hrs by alamar blue assay

cells [9] = type: functional, cell-based; conditions: Homo sapiens, 72 h; remark: listed apart in the source
Description: Antiproliferative activity against human CH22 cells measured after 72 hrs by alamar blue assay

cells [10] = type: functional, cell-based; conditions: Homo sapiens, 72 h; remark: listed apart in the source
Description: Antiproliferative activity against human UCH12 cells measured after 72 hrs by alamar blue assay

cells [11] = type: functional, cell-based; conditions: Homo sapiens, 72 h; remark: listed apart in the source
Description: Antiproliferative activity against human UCH14 cells measured after 72 hrs by alamar blue assay

[12] = biological target: T1, Epidermal growth factor receptor; assay: Binding affinity to wild-type human partial length EGFR (R669 to V1011 residues) expressed in bacterial expression system at 1 uM by Kinomescan method relative to control
[13] = biological target: T3, Cyclin-G-associated kinase (Homo sapiens) (UniProt O14976); assay: Inhibition of tracer 5 binding to human N-terminal nano luciferase-fused GAK expressed in HEK293 cells at 5 uM measured after 2 hrs by nanoBRET assay relative to control; type: cell-based
T3 sequence (whole entry): T2 sequence (O14976 whole entry)

[14] = biological target: T2, Cyclin-G-associated kinase; assay: Binding affinity to wild-type human partial length GAK (G13 to Y338 residues) expressed in bacterial expression system by Kinomescan method
[15] = biological target: Aurora kinase B (Homo sapiens) (UniProt Q96GD4); assay: Binding affinity to AURKB in human SUM159 cell lysates by multiplexed inhibitor bead profiling-based LC-MS/MS analysis; type: subcellular; conditions: Lysate
Sequence of Aurora kinase B (Homo sapiens) (Q96GD4 whole entry): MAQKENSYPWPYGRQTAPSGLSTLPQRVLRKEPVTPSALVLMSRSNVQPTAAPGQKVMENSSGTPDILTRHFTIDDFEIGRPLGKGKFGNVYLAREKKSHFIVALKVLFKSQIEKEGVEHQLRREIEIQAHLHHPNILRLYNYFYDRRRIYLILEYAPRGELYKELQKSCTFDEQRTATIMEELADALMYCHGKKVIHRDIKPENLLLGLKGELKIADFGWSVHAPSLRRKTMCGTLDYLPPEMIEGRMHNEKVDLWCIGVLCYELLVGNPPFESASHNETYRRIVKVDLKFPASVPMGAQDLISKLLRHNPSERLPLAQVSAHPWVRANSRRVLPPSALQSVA

[16] = biological target: T4, Dual specificity mitogen-activated protein kinase kinase 5 (Homo sapiens) (UniProt Q13163); assay: Binding affinity to MAP2K5 in human SUM159 cell lysates by multiplexed inhibitor bead profiling-based LC-MS/MS analysis; type: subcellular; conditions: Lysate
T4 sequence (whole entry): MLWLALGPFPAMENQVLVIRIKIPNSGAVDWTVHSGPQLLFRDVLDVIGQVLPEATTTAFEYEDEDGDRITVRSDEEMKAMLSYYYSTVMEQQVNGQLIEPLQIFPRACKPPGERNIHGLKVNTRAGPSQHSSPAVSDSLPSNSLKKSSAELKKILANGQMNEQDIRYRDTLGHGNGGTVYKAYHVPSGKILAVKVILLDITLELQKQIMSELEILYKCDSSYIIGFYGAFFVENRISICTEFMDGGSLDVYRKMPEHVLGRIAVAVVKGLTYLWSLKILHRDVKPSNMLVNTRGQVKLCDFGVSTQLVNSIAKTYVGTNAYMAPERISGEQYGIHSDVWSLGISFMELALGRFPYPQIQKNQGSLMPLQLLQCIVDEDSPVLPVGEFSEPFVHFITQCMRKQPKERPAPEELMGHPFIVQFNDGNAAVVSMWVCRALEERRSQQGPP

[17] = biological target: Nucleoside diphosphate kinase B (Homo sapiens) (UniProt P22392); assay: Binding affinity to NME2 in human SUM159 cell lysates by multiplexed inhibitor bead profiling-based LC-MS/MS analysis; type: subcellular; conditions: Lysate
Sequence of Nucleoside diphosphate kinase B (Homo sapiens) (P22392 whole entry): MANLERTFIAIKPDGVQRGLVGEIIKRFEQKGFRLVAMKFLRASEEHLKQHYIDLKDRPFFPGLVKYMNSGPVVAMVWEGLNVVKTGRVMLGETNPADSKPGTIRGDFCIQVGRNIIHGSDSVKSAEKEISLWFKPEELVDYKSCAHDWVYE

[18] = biological target: T1, Epidermal growth factor receptor; assay: Inhibition of EGFR in human UCH1 cells assessed as reduction in EGF-induced EGFR phosphorylation at Y1068 residue at 10 uM preincubated for 4 hrs followed by EGF--stimulation and measured after 15 mins by Western blot analysis relative to control; type: cell-based
[19] = Effect on total EGFR expression in human UCH1 cells at 1 to 10 uM measured after 4 hrs by Western blot analysis; type: ADME, cell-based
[20] = Effect on total EGFR expression in human UCH2 cells at 1 to 10 uM measured after 4 hrs by Western blot analysis; type: ADME, cell-based
[21] = biological target: T1, Epidermal growth factor receptor; assay: Inhibition of EGFR in human UCH1 cells assessed as reduction in EGF-induced EGFR phosphorylation at Y1068 residue at 1 uM preincubated for 4 hrs followed by EGF--stimulation and measured after 15 mins by Western blot analysis relative to control; type: cell-based
[22] = biological target: T1, Epidermal growth factor receptor; assay: Inhibition of EGFR in human UCH2 cells assessed as reduction in EGF-induced EGFR phosphorylation at Y1068 residue at 10 uM preincubated for 4 hrs followed by EGF--stimulation and measured after 15 mins by Western blot analysis relative to control; type: cell-based
[23] = biological target: T1, Epidermal growth factor receptor; assay: Inhibition of EGFR in human UCH2 cells assessed as reduction in EGF-induced EGFR phosphorylation at Y1068 residue at 1 uM preincubated for 4 hrs followed by EGF--stimulation and measured after 15 mins by Western blot analysis relative to control; type: cell-based
[24] = biological target: T3, Cyclin-G-associated kinase (Homo sapiens); assay: Binding affinity to GAK in human SUM159 cell lysates by multiplexed inhibitor bead profiling-based LC-MS/MS analysis; type: subcellular; conditions: Lysate

Structure (SMILES) | IC50 (cells [1]) [µM] | IC50 (cells [2]) [µM] | Kd [3] [µM] | IC50 [4] [µM] | IC50 [5] [µM] | IC50 (cells [6]) [µM] | IC50 (cells [7]) [µM] | IC50 (cells [8]) [µM] | IC50 (cells [9]) [µM] | IC50 (cells [10]) [µM] | IC50 (cells [11]) [µM] | inhibition [13] [%] | Kd [14] [µM] | other results
CC(C)(C)S(=O)(=O)c1cc2c(Nc3ccc4scnc4c3)ncnc2cc1OCCO | > 50 | 30 | – | > 50 | – | > 50 | – | – | – | – | – | 0 | – | –
COc1cc2ncc(C#N)c(Nc3cccc(Br)c3)c2cc1OC | 8.8 | > 50 | 0.0024 | 0.09 | 0.13 | 14 | – | – | – | – | – | – | 0.012 | –
COc1cc2nccc(Nc3ccc(OCc4cccc(F)c4)c(Cl)c3)c2cc1OC | 2.6 | 2.9 | 0.032 | 1.7 | – | 8.6 | 2.7 | 1.5 | 1 | 5.5 | 7 | 22 | > 10 | Activity [15]: Active; Activity [16]: Active; Activity [17]: Active
C#Cc1cccc(Nc2ncnc3cc(OC)c(OC)cc23)c1 | 0.92 | > 50 | 0.00055 | – | 0.072 | 4.4 | 23 | 18 | > 50 | > 50 | > 50 | – | 0.0068 | inhibition [18]: 100%; Activity [19]: Non-Toxic; Activity [20]: Non-Toxic; inhibition [21]: 63.4%; inhibition [22]: 100%; inhibition [23]: 100%; Activity [24]: Active
COc1cc2ncnc(Nc3cccc(Br)c3)c2cc1OC | 0.66 | 26 | – | – | 0.26 | 9.7 | – | – | – | – | – | – | – | –

Continued, in another order:

IC50 (cells [1]) [µM] | IC50 (cells [2]) [µM] | Kd [3] [µM] | IC50 [4] [µM] | IC50 [5] [µM] | IC50 (cells [6]) [µM] | IC50 (cells [7]) [µM] | IC50 (cells [8]) [µM] | IC50 (cells [9]) [µM] | IC50 (cells [10]) [µM] | IC50 (cells [11]) [µM] | inhibition [13] [%] | Kd [14] [µM] | Structure (SMILES) | other results
11 | 25 | 0.41 | 27 | 0.023 | 14 | 30 | 24 | 12 | 33 | 19 | – | – | COc1cc2nccc(Nc3cc(OC)c(OC)c(OC)c3)c2cc1OC | –
> 50 | > 50 | – | > 50 | – | 11 | – | – | – | – | – | – | – | COc1cc(Nc2ccnc3ccc(Br)cc23)cc(OC)c1OC | Activity [12]: < 50%
37 | > 50 | – | > 50 | – | 49 | – | – | – | – | – | 0 | – | COc1cc(Nc2cc(C)nc3ccc(C(F)(F)F)cc23)cc(OC)c1OC | –
11 | > 10 | 0.0074 | 7.1 | 0.0024 | > 50 | – | – | – | – | – | – | 0.00042 | COc1cc2ncc(C#N)c(Nc3cc(OC)c(OC)c(OC)c3)c2cc1OC | –
